27 molecules from PubChem BioAssay AID264 (DTP/NCI, 2004) can be followed below.

The subject of the assay is nude mice, LX-1 lung xenograft intrarenal, tumor weight T/C. Nature of the assay: NCI In Vivo Anticancer Drug Screen. Data for tumor model Human Lung LX-1 Xenograft (intrarenal inoculation) in NU/NU Swiss (nude) mice. Conditions: endpoint: mean tumor weight change, higher = larger tumour. A digest of the protocol:
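Tumor-bearing mice receive test compound or vehicle; tumor size is then measured in each group. The treated value is divided by the vehicle value to give T/C.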
For orientation: In xenograft studies the graft and the host belong to different species.

The mark [1] stands for this setting: dose: 150.0 mg/kg/injection, schedule: Q04DX003 (sc), vehicle: Klucel (hydroxypropylcellulose) (HPC).
The mark [2] stands for this setting: dose: 300.0 mg/kg/injection, schedule: Q04DX003 (sc), vehicle: saline with Tween-80.
[3] abbreviates: dose: 600.0 mg/kg/injection, schedule: Q04DX003 (sc), vehicle: saline with Tween-80.
[4] abbreviates: dose: 1200.0 mg/kg/injection, schedule: Q04DX003 (sc), vehicle: saline with Tween-80.
Where [5] appears, read: dose: 2400.0 mg/kg/injection, schedule: Q04DX003 (sc), vehicle: saline with Tween-80.
[6] abbreviates: dose: 75.0 mg/kg/injection, schedule: Q04DX003 (sc), vehicle: saline with Tween-80.
Setting [7] is: dose: 150.0 mg/kg/injection, schedule: Q04DX003 (sc), vehicle: saline with Tween-80.
[8] abbreviates: dose: 100.0 mg/kg/injection, schedule: Q04DX003 (sc), vehicle: Klucel (hydroxypropylcellulose) (HPC).
[9] abbreviates: dose: 200.0 mg/kg/injection, schedule: Q04DX003 (sc), vehicle: Klucel (hydroxypropylcellulose) (HPC).
[10] abbreviates: dose: 6.25 mg/kg/injection, schedule: Q04DX003 (sc), vehicle: saline with Tween-80.
Where [11] appears, read: dose: 12.5 mg/kg/injection, schedule: Q04DX003 (sc), vehicle: saline with Tween-80.
Setting [12] is: dose: 25.0 mg/kg/injection, schedule: Q04DX003 (sc), vehicle: saline with Tween-80.
The mark [13] stands for this setting: dose: 50.0 mg/kg/injection, schedule: Q04DX003 (sc), vehicle: saline with Tween-80.
Where [14] appears, read: dose: 4.0 mg/kg/injection, schedule: Q04DX003 (sc), vehicle: saline.
The mark [15] stands for this setting: dose: 16.0 mg/kg/injection, schedule: Q04DX003 (sc), vehicle: saline.
The mark [16] stands for this setting: dose: 300.0 mg/kg/injection, schedule: Q04DX003 (sc), vehicle: suspension in saline.
[17] abbreviates: dose: 600.0 mg/kg/injection, schedule: Q04DX003 (sc), vehicle: suspension in saline.
The mark [18] stands for this setting: dose: 1200.0 mg/kg/injection, schedule: Q04DX003 (sc), vehicle: suspension in saline.

Values joined by “and” are separate entries in the source; they are usually repeats but may differ in a detail not shown here. Equal entries are not always repeated. Records with an inconclusive call do not appear.

For `Cc1cc(N2C(=O)CCSC2=S)ccc1Cl`, the T/C (dose: 75.0 mg/kg/injection, schedule: Q04DX003 (sc), vehicle: Klucel (hydroxypropylcellulose) (HPC)) was 60 % of control; the T/C under setting [1] is 111 % of control; the T/C (dose: 300.0 mg/kg/injection, schedule: Q04DX003 (sc), vehicle: Klucel (hydroxypropylcellulose) (HPC)) is 62 % of control; the T/C (dose: 600.0 mg/kg/injection, schedule: Q04DX003 (sc), vehicle: Klucel (hydroxypropylcellulose) (HPC)) was 75 % of control.
For `CCN(CC)CC[n+]1ccc2c(C)c3[nH]c4ccc(O)cc4c3c(C)c2c1`, the T/C (dose: 25.0 mg/kg/injection, schedule: Q04DX003 (sc), vehicle: suspension in saline) is 172 % of control and the T/C (dose: 50.0 mg/kg/injection, schedule: Q04DX003 (sc), vehicle: suspension in saline) is 111 % of control.
Regarding `CC(=O)Nc1ccc(S(=O)(=O)CO)cc1`, the T/C is 90 % of control under setting [2], 66 % of control under setting [3], 96 % of control under setting [4] and 67 % of control under setting [5].
`CC1(C)OC2C(COC(=O)c3ccc([N+](=O)[O-])cc3)OC(NC(=O)N(CCCl)N=O)C2O1` (stereo not drawn): the T/C reads like this: under setting [6], 84 % of control; under setting [7], 43 % of control; under setting [2], 41 % of control; under setting [3], 27 % of control.
`CC(Cc1ccc(O)cc1)NCC(O)c1ccc(O)c(O)c1` (stereo not drawn): the T/C under setting [2] was 62 % of control, the T/C under setting [3] was 98 % of control and the T/C under setting [4] is 61 % of control.
On to `C[Si](C)(C)n1nnn(-c2ccccc2)c1=O`, for which the T/C was 94 % of control under setting [6], 105 % of control under setting [7] and 107 % of control under setting [2].
As for `CC1(C)OC1CS(=O)c1ccccc1` (stereo not drawn), the T/C runs as follows: under setting [3], 121 % of control; under setting [4], 89 % of control.
As to `CC[C@](C)(O)C(=O)O[C@H]1C(=O)O[C@@H]2C[C@H]3C(C)=CC(=O)[C@@H](O)[C@]3(C)[C@H]3[C@@]4(O)OC[C@]32[C@@H]1[C@@H](C)[C@H]4O`, the T/C (dose: 0.25 mg/kg/injection, schedule: Q01DX010 (sc), vehicle: Klucel (hydroxypropylcellulose) (HPC)) was 48 % of control; the T/C (dose: 0.5 mg/kg/injection, schedule: Q01DX010 (sc), vehicle: Klucel (hydroxypropylcellulose) (HPC)) was 71 % of control and 92 % of control; the T/C (dose: 1.0 mg/kg/injection, schedule: Q01DX010 (sc), vehicle: Klucel (hydroxypropylcellulose) (HPC)) is 70 % of control and 75 % of control; the T/C (dose: 2.0 mg/kg/injection, schedule: Q01DX010 (sc), vehicle: Klucel (hydroxypropylcellulose) (HPC)) is 43 % of control and 45 % of control.
For the molecule `O=C(O)/C=C/C(=O)Nc1ccc(Cl)c(Cl)c1`, the T/C is, setting by setting: under setting [8], 95 % of control; under setting [9], 91 % of control.
In the case of `NC(=O)/C=C/c1c[nH]c2nccnc12`, the T/C (dose: 50.0 mg/kg/injection, schedule: Q04DX003 (sc), vehicle: water) was 86 % of control.
For `OCC1OC(n2cnc3cc(Cl)c(Cl)cc32)C(O)C1O` (stereo not drawn), the T/C is, setting by setting: under setting [2], 112 % of control; under setting [3], 86 % of control; under setting [4], 94 % of control; under setting [5], 72 % of control.
Take `Cn1cnc([N+](=O)[O-])c1Sc1ncn[nH]1`: the T/C by setting is: (dose: 100.0 mg/kg/injection, schedule: Q04DX003 (sc), vehicle: suspension in saline) 96 % of control; (dose: 200.0 mg/kg/injection, schedule: Q04DX003 (sc), vehicle: suspension in saline) 96 % of control; (dose: 400.0 mg/kg/injection, schedule: Q04DX003 (sc), vehicle: suspension in saline) 32 % of control.
As for `C[n+]1ccc2cc(N)c3c4ccccc4sc3c2c1`, the T/C runs as follows: under setting [10], 67 % of control; under setting [11], 93 % of control; under setting [12], 70 % of control; under setting [13], 74 % of control.
In the case of `C/C=C(\C)c1cc(=O)c2c(C)cc3c(c2o1)C(=O)c1c(O)c(C2CC(C)(N(C)C)C(O)C(C)O2)cc(C2CC(N(C)C)C(O)C(C)O2)c1C3=O` (stereo not drawn), the T/C is 76 % of control (dose: 2.0 mg/kg/injection, schedule: Q04DX003 (sc), vehicle: saline); 89 % of control under setting [14]; 80 % of control (dose: 8.0 mg/kg/injection, schedule: Q04DX003 (sc), vehicle: saline); 35 % of control under setting [15].
Consider `c1cc[c]([Sn]([NH]c2ncnc3[nH]cnc23)([NH]c2ncnc3[nH]cnc23)[c]2ccccc2)cc1`, for which the T/C was 85 % of control under setting [16]; 84 % of control under setting [17]; 82 % of control under setting [18]; 64 % of control (dose: 2400.0 mg/kg/injection, schedule: Q04DX003 (sc), vehicle: suspension in saline).
As for `COC(=Nc1ccccc1)SSC(C)C`, the T/C is, setting by setting: under setting [2], 120 % of control; under setting [3], 94 % of control; under setting [4], 107 % of control.
`NS(=O)(=O)OCCCCCCCOS(N)(=O)=O`: the T/C (dose: 150.0 mg/kg/injection, schedule: Q04DX003 (ip), vehicle: saline with Tween-80) is 109 % of control and the T/C (dose: 300.0 mg/kg/injection, schedule: Q04DX003 (ip), vehicle: saline with Tween-80) is 123 % of control.
`COc1ccc(Cl)[n+]([O-])n1`: the T/C by setting is: (dose: 25.0 mg/kg/injection, schedule: Q04DX003 (sc), vehicle: Klucel (hydroxypropylcellulose) (HPC)) 83 % of control; (dose: 50.0 mg/kg/injection, schedule: Q04DX003 (sc), vehicle: Klucel (hydroxypropylcellulose) (HPC)) 60 % of control; under setting [8], 80 % of control.
Turning to `CCN1/C(=C/C=C/C=C\C=C\c2sc3ccc4ccccc4c3[n+]2CC)Sc2ccc3ccccc3c21`, the T/C reads like this: under setting [10], 156 % of control; under setting [11], 116 % of control; under setting [12], 78 % of control; under setting [13], 122 % of control.
Take `C[C@H]1C[C@@H]2[C@H]([C@@H](O)C[C@@]3(C)[C@H]2CC[C@]3(O)C(=O)CO)[C@@]2(C)C=CC(=O)C=C12`: the T/C is, setting by setting: under setting [9], 76 % of control; (dose: 400.0 mg/kg/injection, schedule: Q04DX003 (sc), vehicle: Klucel (hydroxypropylcellulose) (HPC)) 58 % of control; (dose: 800.0 mg/kg/injection, schedule: Q04DX003 (sc), vehicle: Klucel (hydroxypropylcellulose) (HPC)) 59 % of control.
As for `Cc1cn(C2CC(F)C(CO)O2)c(=O)[nH]c1=O` (stereo not drawn), the T/C was 54 % of control (dose: 150.0 mg/kg/injection, schedule: Q04DX003 (sc), vehicle: suspension in saline); 85 % of control under setting [16]; 56 % of control under setting [17]; 37 % of control under setting [18].
As for `Nc1cc2c3c(cccc3c1)C(=O)N(CCN1CCCC1)C2=O`, the T/C was 42 % of control under setting [13]; 79 % of control (dose: 100.0 mg/kg/injection, schedule: Q04DX003 (sc), vehicle: saline with Tween-80); 108 % of control (dose: 200.0 mg/kg/injection, schedule: Q04DX003 (sc), vehicle: saline with Tween-80); 46 % of control (dose: 400.0 mg/kg/injection, schedule: Q04DX003 (sc), vehicle: saline with Tween-80).
Consider `NC(=S)N/N=C\c1ncccc1OCc1cccc(N)c1`, for which the T/C runs as follows: under setting [2], 158 % of control; under setting [3], 159 % of control; under setting [4], 105 % of control; under setting [5], 96 % of control.
Regarding `Cc1cc(N(CC(C)Br)CC(C)Br)ccc1N=Nc1ccccc1C(=O)O` (stereo not drawn), the T/C (dose: 3.13 mg/kg/injection, schedule: Q01DX010 (sc), vehicle: saline with Tween-80) is 85 % of control and the T/C (dose: 6.25 mg/kg/injection, schedule: Q01DX010 (sc), vehicle: saline with Tween-80) is 151 % of control.
On to `CCC1CC2CN(CCc3c([nH]c4ccccc34)C(C(=O)OC)(c3cc4c(cc3OC)N(C)C3C(O)(C(=O)OC)C(OC(C)=O)C5(CC)C=CCN6CCC43C65)C2)C1` (stereo not drawn), for which the T/C was 63 % of control and 64 % of control under setting [14]; 31 % of control and 33 % of control (dose: 4.0 mg/kg/injection, schedule: Q04DX003 (sc), vehicle: suspension in saline); 6 % of control and 12 % of control under setting [15].
As for `COC1OC(CO)C(O)C(NC(=O)N(C)N=O)C1O` (stereo not drawn), the T/C runs as follows: (dose: 800.0 mg/kg/injection, schedule: Q04DX003 (sc), vehicle: saline) 31 % of control; (dose: 900.0 mg/kg/injection, schedule: Q04DX003 (sc), vehicle: saline) -100 % of control.
In the case of `NC(=O)c1ncn(C2OC(CO)C(O)C2O)c1O` (stereo not drawn), under setting [1], the T/C was 99 % of control.
